Assays:
epimastigote = tested on: epimastigote; set-up: method as in PMID 20961766; conditions: read-out: IC50 replication of the epimastigote; cited from earlier work
[1] = tested on: T. cruzi INC-5 epimastigotes; assay: microbe, parasite or virus in culture; conditions: for CC50: Trypanosoma cruzi, read-out: LC50 Epimastigotes T. cruzi INC-5
Excerpt: (§1) For biological evaluation, the compounds Z2 (ZINC9873043), Z3 (ZINC9870651), Z5 (ZINC9715287), and Z6 (ZINC9861447) were selected and purchased from Molport https://www.molport.com (accessed on: 03 March 2018). For evaluation of trypanocidal activity of the selected compounds, two strains (NINOA and INC-5) in the epimastigote or trypomastigote stage of T. cruzi were used. Each strain was used to infect CD-1 mice (18–20 g) intraperitoneally with a concentration of 1 × 10^6 trypomastigotes/mL of blood. In the maximum peak of parasitemia, blood was obtained by cardiac puncture using heparin as an anticoagulant. The parasite concentration was then adjusted with isotonic saline (0.85% NaCl), and 90 μL of blood was used to achieve a concentration of 1 × 10^6 trypomastigotes/mL of blood. A 10 μL sample of each compound was evaluated in 96-well plates. The treatments performed consisted of a negative control, which contained dimethylsulfoxide (DMSO 2.5%) and the four compounds selected from virtual screening. […] Once the selected compounds were added after being homogenized with blood, the plates were incubated at 4 °C for 24 h. Once the incubation time had elapsed, the plates were kept at room temperature for 30 min, and then an aliquot of 5 μL was taken from each well, a fresh preparation was made, and the viable trypomastigotes were counted using the Pizzi method. A calculation of the number of viable trypomastigotes per mL of blood was carried out, and the survival percentages were obtained taking 100% of the negative control. Each test was done in triplicate. […] The LC50 values were determined using Probit statistical analysis of the dose-response, and the results were expressed as the mean of the standard deviation. The results were later converted to micromolar units.

[2] = tested on: T. cruzi INC-5 bloodstream trypomastigotes; assay: microbe, parasite or virus in culture; conditions: Trypanosoma cruzi, 24 h, read-out: LC50 Bloodstream Trypomastigotes T. cruzi INC-5
Excerpt: as §1

[3] = target: cysteine proteases from epimastigotes of Trypanosoma cruzi strain INC-5; assay: Enzyme inhibition, protease extract, substrate Z-Phe-Arg-MCA; format: biochemical; conditions: protein extract of INC-5 epimastigotes, Z-Phe-Arg-MCA 5 µM, compounds 6.25–200 µM, pH 6.5
Description: T. cruzi epimastigotes of the INC-5 strain were used to obtain a protein extract quantified by the Bradford method. Evaluation of the activity was carried out using the synthetic fluorogenic peptide Z-Phe-Arg-MCA as a substrate at 5 µM, with 1 μg of the enzyme extract and the corresponding compounds (Z2, Z3, Z5, and Z6) at different concentrations (6.25–200 µM) using a reaction buffer (50 mM Na2HPO4, 100 mM NaCl, 5 mM EDTA, 2.5 mM dithiothreitol; pH 6.5) at room temperature. As a negative control of enzyme inhibition, the substrate without compounds was evaluated with 2% DMSO (concentration corresponding to the highest dilution of the compounds). Hydrolysis of the substrate was monitored in a continuous assay for 1 h in the Spectramax M5 spectrofluorometer (Molecular Devices) at 380 nm excitation and 440 nm emission. The mean of fluorescence changes was normalized taking the control (without inhibitor) as 100%. The IC50 values were determined from semilog concentration-response plots using the nonlinear curve-fitting method.

[4] = tested on: trypomastigotes of T. cruzi of the Tulahúen strain in mouse fibroblasts (L929); set-up: method as in Ferreira et al. (2010) and Pinto et al. (2017); conditions: infected L929 fibroblasts, ref Ferreira et al. (2010) and Pinto et al. (2017); cited from earlier work
[5] = activity previously reported for the compound; cited from earlier work
[6] = tested on: T. cruzi NINOA bloodstream trypomastigotes; assay: microbe, parasite or virus in culture; conditions: Trypanosoma cruzi, 24 h, read-out: LC50 Bloodstream Trypomastigotes T. cruzi NINOA
Excerpt: as §1

Row | Compound | IC50 (epimastigote) [µM] | CC50 [1] [µM] | CC50 [2] [µM] | LC50 Epimastigotes T. cruzi INC-5 ([1]; half maximal lytic concentration, epimastigotes, INC-5 strain) | IC50 [3] [µM] | IC50 [4] [µM] | Activity Reported [5] | CC50 [6] [µM]
1 | O=C(Cn1ccnc1[N+](=O)[O-])NCc1ccccc1 [Bzn, benznidazole, reference compound] | 1.8 | 9.64 ± 4.2 | 225 ± 26.5 |  |  |  |  | 
2 | Clc1ccc2[nH]c3c(NCCCN4CCOCC4)ncnc3c2c1 [S1, 8-chloro-N-(3-morpholinopropyl)-5H-pyrimido[5,4-b]-indol-4-amine, reference compound] |  | > 250 | > 250 | did not show an effect | > 200 | 2.5 |  | 
3 | Cc1ccc(NC(=O)CCC(=O)N2CCC(c3ccccc3)=N2)cc1S(=O)(=O)N1CCCCC1 [Z2] |  | 239 ± 9.3 | > 250 |  | > 200 |  | Inhibitor of cannabinoid receptor type 2 | > 250
4 | C[C@H]1CCc2sc(-c3nnc(SCC(=O)N4N=C(c5ccco5)C[C@@H]4c4ccco4)o3)cc2C1 [Z3] |  | > 250 | > 250 |  | 84.4 |  |  | > 250
5 | COc1ccc([C@H]2CC(c3ccc4ccccc4c3)=NN2C(=O)Cn2cnc3ccsc3c2=O)cc1 [Z4] |  |  |  |  |  |  | Amine oxidase inhibitor | 
6 | Cc1nnc(SCC(=O)N2N=C(c3ccc4ccccc4c3)C[C@@H]2c2ccccc2)n(N)c1=O [Z5] |  | 36.3 ± 9.9 | 185 ± 8.5 |  | 56.2 |  | Amine oxidase inhibitor | 166 ± 14.5
7 | Cc1ccc(C2=NN(C(=O)CN3C(=O)N[C@](C)(c4ccc(F)c(F)c4)C3=O)[C@H](c3ccco3)C2)cc1 [Z6] |  | > 250 | > 250 |  | 50.4 |  | Amine oxidase inhibitor | > 250
8 | O=C(CCC(=O)N1CCC(c2ccccc2)=N1)N1CCN(S(=O)(=O)c2ccc3c(c2)CCC3)CC1 [Z7] |  |  |  |  |  |  | Inhibitor of aldo keto reductases | 
9 | CN1N=C(C(=O)N2CCc3c(c(C(=O)N4CCOCC4)nn3CCCc3ccccc3)C2)CCC1=O [Z8] |  |  |  |  |  |  | Inhibitor of cathepsin S | 
10 | C[C@@H](Sc1nnc(C2CCCCC2)o1)C(=O)N1N=C(c2ccc(Cl)cc2)C[C@@H]1c1ccco1 [Z10] |  |  |  |  |  |  | Amine oxidase inhibitor | 
11 | C[C@H](/C=C/C(=O)C=O)NC(=O)[C@@H](Cc1ccccc1)NC(=O)OCc1ccccc1 [compound 186, reference compound] |  |  |  |  |  |  | Cz inhibitor | 

— paper PMC6479639, “Structure-Based Virtual Screening and In Vitro Evaluation of New Trypanosoma cruzi Cruzain Inhibitors” (International Journal of Molecular Sciences, 2019)
